Laboratory results published in a melting point compilation (Tetko et al.).

Structure (SMILES) | melting point
O=S(=O)(Cl)C1CCOCC1 | 34 to 36 °C
COc1ccc(C(=O)O)cc1S(=O)(=O)NC1CCCC1 | 216 to 218 °C
COC(=O)c1noc(C)c1C(C)=O | 36 to 38 °C
CCc1n[nH]c(=O)c(C(=O)O)c1CC | 154 to 156 °C
CN1CCN(C(=O)c2ccc(Br)cc2)CC1 | 81 to 83 °C
Cc1sc2nc(CCl)nc(Cl)c2c1C | 142 to 144 °C
CC1(C)C(=O)NS1(=O)=O | 137 to 139 °C
Nc1cc2c(cc1N)OCCO2 | 124 to 126 °C
CCOc1cc(C=O)ccc1OCCOc1ccc(F)cc1 | 85 to 87 °C
COc1cc(C2(C(=O)O)CC2)ccc1C | 127 to 129 °C
CCOC(=O)c1nc(-c2ccc(Cl)c(Cl)c2)oc1C | 99 to 101 °C
CCOC(=O)N1CCN(S(=O)(=O)Cl)CC1 | 67 to 69 °C
O=C1c2ccc(S(=O)(=O)Cl)cc2CCC1Cl (centres undefined) | 124 to 126 °C
Cc1cc(C)c2nc(C3CC3)cc(C(=O)O)c2c1 | 207 to 209 °C
CS(=O)(=O)Cc1nc(CCl)cs1 | 80 to 82 °C
O=C(O)c1ccc(CN2CCC(CO)CC2)cc1 | 219 to 221 °C
CC(C)(C)n1ccnc1S | 192 to 194 °C
OCCOc1cncc(Br)c1 | 51 to 53 °C
O=C(c1cc(Cl)c[nH]1)N1CCCNCC1 | 116 to 118 °C
O=C(O)c1ccc(NC(=O)C2CC2)s1 | 205 to 207 °C
O=C(c1ccc[nH]1)N1CCCNCC1 | 143 to 145 °C
O=C1COc2ccc(C(F)(F)F)cc2N1 | 165 to 167 °C
COC(=O)CCCN1C(=O)NC(C)(C)C1=O | 60 to 62 °C
O=C1COc2cc([N+](=O)[O-])c(F)cc2N1 | 221 to 223 °C

Structure (SMILES) | melting point
Cc1sc2ncnc(Sc3ccccc3C(=O)O)c2c1C | 200 to 202 °C
Cc1ccc2sc(-c3ccc(CCl)cc3)nc2c1 | 149 to 151 °C
O=S1(=O)CCC(c2nnc(S)o2)C1 (centres undefined) | 181 to 183 °C
CN(C)S(=O)(=O)c1ccc(Cl)c([N+](=O)[O-])c1 | 104 to 106 °C
O=c1[nH]c(S)nc2ccc(F)cc12 | 345 to 347 °C
CC(C)(C)OC(=O)N1CCN(CC(=O)O)C(=O)C1 | 149 to 151 °C
Cc1ccsc1C(=O)CC#N | 114 to 116 °C
Nc1cc(C(F)(F)F)no1 | 52 to 54 °C
COC(=O)c1coc(C(=O)CCl)c1 | 97 to 99 °C
CCOC(=O)c1cc2c(nc1N)CCCC2 | 127 to 129 °C
Cn1cncc1CO | 112 to 114 °C
O=C(O)c1c(O)cc(Cl)cc1Cl | 189 to 191 °C
NS(=O)(=O)c1cc(Br)c(Cl)c(C(=O)O)c1 | 219 to 221 °C
CC(NC(=S)NN)C1CC1 (centres undefined) | 68 to 70 °C
Nc1nnc(C23CC4CC(CC(C4)C2)C3)s1 | 197 to 199 °C
Cc1[nH]c(N)c(C#N)c1C | 149 to 151 °C
CN(C)C(=O)c1ccc(C=O)[nH]1 | 165 to 167 °C
COC(=O)C(=O)CC(=O)c1ccc(Cl)s1 | 103 to 105 °C
O=C(O)c1ccccc1C(=O)N1CCCC1 | 131 to 133 °C
O=[N+]([O-])c1ccc2c(c1)CCCN2 | 155 to 157 °C
CCC1(C(=O)O)CCN(C(=O)c2ccccc2)CC1 | 154 to 156 °C
COc1ccc(S(=O)(=O)Cl)c([N+](=O)[O-])c1 | 75 to 79 °C
CC(=O)N(C)Cc1ccc(C(=O)CCl)cc1 | 45 to 47 °C
CC(C)COc1ccc(C2(C(=O)O)CCC2)cc1 | 105 to 107 °C

Results, then the molecule that gave them:

melting point | Structure (SMILES)
142 to 144 °C | Clc1cc(Cl)nc(-c2ccccn2)n1
65 to 67 °C | CC(=O)c1nc2ccccc2n1C(F)F
180 to 182 °C | O=C(O)CNS(=O)(=O)c1ccc2ccccc2c1
104 to 106 °C | Cc1cccc([N+](=O)[O-])c1C(=O)n1ccnc1
182 to 184 °C | O=C(CO)Nc1cccc([N+](=O)[O-])c1
94 to 96 °C | O=C(O)Cc1cccc(OCc2cccc(Cl)c2)c1
189 to 191 °C | O=C(O)c1ccccc1NCc1cccnc1
157 to 159 °C | O=C(O)c1ccc(Cl)cc1I
134 to 136 °C | CC(C)(C)OC(=O)N1CCc2ccc(O)cc2C1
101 to 103 °C | OCc1nnc(-c2ccccc2Cl)o1
175 to 177 °C | CCOc1ccc(N(C)S(=O)(=O)c2ccc(C)c(C(=O)O)c2)cc1
177 to 179 °C | NC(=O)c1ccn(-c2cccc(N)c2)n1
268 to 270 °C | Cc1nn(-c2cccc(Cl)c2)c2sc(C(=O)O)cc12
137 to 139 °C | CCCc1nc(C(=O)O)nn1-c1ccccc1F
127 to 129 °C | N#Cc1cc(N)ccc1Cl
111 to 113 °C | Cc1ccc(NS(=O)(=O)c2ccc(C)c(N)c2)c(C)c1
205 to 207 °C | COc1ccc(Cn2ncc3cc(C(=O)O)cnc32)c(OC)c1
124 to 126 °C | Cc1cccn2c(=O)cc(Cl)nc12
309 to 311 °C | O=C(O)c1cc(/C=C/c2ccc(Br)cc2)nc2ccc(Br)cc12
244 to 246 °C | Cc1ccc2nc(-c3cccc(C)c3O)[nH]c2c1
100 to 102 °C | CC(Cl)C(=O)NCc1ccc(Cl)cc1 (centres undefined)
174 to 176 °C | Cc1cc(C)c(C(N)=O)c(N2CCCC2)n1
100 to 102 °C | COC(=O)c1ccc(-c2nc(C3CC3)no2)cc1
206 to 208 °C | Fc1cccc(Nc2nnc(S)s2)c1
224 to 226 °C | c1ccc(-c2nnco2)nc1
95 to 97 °C | Cc1cccc(C2(C(=O)O)CCC2)c1

melting point | Structure (SMILES)
79 to 81 °C | Nc1[nH]nc(-c2ccsc2)c1-c1ccc2c(c1)OCO2
204 to 206 °C | O=C(O)c1ccc([N+](=O)[O-])c2cccnc12
96 to 98 °C | COc1ccc2oc(C(C)=O)c(C)c2c1
153 to 155 °C | O=Cc1cn(-c2ccccc2)nc1-c1ccncc1
67 to 69 °C | N#CCC(=O)c1ccc(F)c(F)c1
79 to 81 °C | CC(=O)c1ccc(Oc2ccc(Br)cc2)cc1
84 to 86 °C | Nc1ccccc1-c1nc(C2CC2)no1
185 to 187 °C | O=C(O)COc1ccc(C(=O)c2ccc(Cl)cc2)cc1
127 to 129 °C | CC(C)(C)c1ccc(-c2csc(N)n2)cc1
244 to 246 °C | O=C(O)C1=C(c2ccccc2)N2CCS(=O)(=O)N=C2S1
239 to 241 °C | Cc1nc2c(Cl)cccc2n1O
272 to 274 °C | O=C(O)c1ccc(-c2ccc(-c3ccccc3)cc2)s1
252 to 254 °C | Nc1cc(C(=O)O)ccc1N1CCSCC1
140 to 142 °C | O=C(CCl)c1c(-c2ccccc2)[nH]c2ccccc12
291 to 293 °C | Cc1nn2c(=S)nc3ccccc3c2[nH]1
134 to 136 °C | CC(=O)Nc1ccc(C)c(N)c1
148 to 150 °C | Nc1nc2cc(Br)ccc2[nH]1
109 to 111 °C | CS(=O)(=O)c1ccc(Br)cc1N
113 to 115 °C | O=C(Nc1ccccc1)C(Cl)C(=O)c1ccccc1 (centres undefined)
181 to 183 °C | N#Cc1ccccc1COc1cccc(C(=O)O)c1
91 to 93 °C | O=C(c1ccc(Cl)cc1)c1ncccn1
142 to 145 °C | O=C(O)c1ccc(Cl)c(S(=O)(=O)Cl)c1
193 to 195 °C | CNS(=O)(=O)c1ccc(-c2ccc(Cl)c(Cl)c2)c(C(=O)O)c1
38 to 40 °C | COc1cccc(-c2noc(CCl)n2)c1
124 to 126 °C | COc1ccc(C2(C)NC(=O)N(NC(=O)CCl)C2=O)cc1 (centres undefined)
